Measured values taken from PMC11590026, “Synthesis, enzyme inhibition, and docking studies of new schiff bases of disalicylic acid methylene-based derivatives as dual-target antibacterial agents” (Frontiers in Chemistry, 2024).
≈ marks a conversion by molar mass, not a printed value. Read-outs that look alike come from different tables or passages of the source.

Key:
E. coli DNA gyrase = E. coli DNA gyrase (Escherichia coli, UniProt P0AES6); assay: E. coli DNA gyrase supercoiling inhibitory assay; format: biochemical
Protocol: The fluorescence was measured with a microplate reader (BioTek Synergy H4,
NaCl and 50 mM MgCl2) was added to terminate the enzymatic reaction. After
Initial screening was done at 100 or 10 μM concentration

S. aureus = assay: MIC/MBC assay, twofold serial dilution; format: cell-based, Staphylococcus aureus
Protocol: (§1) The results of this in vitro assay test are consistent with the findings of the antimicrobial sensitivity test. […] It has lower antimicrobial activity than ciprofloxacin against all pathogens tested.
(§2) The MBC differs from the MIC. […]
(§3) 4.2.2. Minimum inhibitory concentration assay
(§4) In 96-well microtiter plates and […] of fresh bacterial culture of a single McFarland unit overnight, a double serial dilution of each compound […] in sterile standard saline were prepared to every single source well. Ciprofloxacin antibiotic (5 mg / mL - 1) and normal saline were included as standard reference in each assay. The plates were incubated at 37 0C overnight. As an indicator of bacterial growth, […] of p-iodonitrotetrazolium violet (INT) was added to each well and incubated at 37 0C for 30 […]
(§5) min. MIC values are recorded as the lowest concentration of the extract that completely inhibited bacterial growth that is clear well. The colorless tetrazolidium salt acts as an electron accepter and is reduced to a red colored formazan product by biological activity organisms. Where bacterial growth was inhibited, the solution in the well remained clear after incubation with INT. […]

E. coli = assay: MIC/MBC assay, twofold serial dilution; format: cell-based, Escherichia coli; conditions: for MBC: read-out: MBC
Protocol: as §1, §2, §3, §4, §5

[1] = system: P. aeruginosa (ATCC BAA-2111); assay: Antibacterial assay against multi-drug resistant strains (MIC/MBC); format: cell-based, Pseudomonas aeruginosa; conditions: for MBC: ATCCBAA2111
DHFR E. Coli = DHFR E. Coli (Escherichia coli, UniProt P0ABQ4); assay: DHFR inhibitory assay; format: biochemical; conditions: read-out: IC50 DHFR E. Coli
B. subtilis = assay: MIC/MBC assay, twofold serial dilution; format: cell-based, Bacillus subtilis
Protocol: as §1, §2, §3, §4, §5

Gram-positive bacteria = assay: MBC assay, Gram-positive bacteria together; format: cell-based; conditions: Gram-positive bacteria (B. subtilis, S. aureus)
From the text: The MBC differs from the MIC.

[2] = Cell viability assay (MTT); format: cell-based; conditions: human, MCF-10A cells (normal mammary gland epithelial cell line), 4-day incubation
Protocol: The vitality of the investigated compounds was assessed using the MCF-10A cell line, which is a normal human mammary gland epithelial cell line. Following a 4-day incubation period on MCF-10A cells with a concentration of 50 µM for each compound being studied, the viability of the cells was assessed using the MTT test ([Hisham et al., 2022]; [Mahmoud et al., 2022]).
4.2.3. Cell Viability assay
MTT assay was carried out to study the effect of compounds on mammary epithelial cells (MCF-10A). The medium in which cells were propagated contained Dulbecco's modified Eagle's medium (DMEM)/ Ham's F-12 medium (1:1) supplemented with epidermal growth factor (20 ng/mL), hydrocortisone (500 ng/mL), insulin (10 μg/mL), 2 mM glutamine and 10% fetal calf serum. After every 2-3 days, the cells were passaged using trypsin ethylenediamine tetra acetic acid (EDTA). The cells were seeded at a density of 10^4 cells mL-1 in flat-bottomed culture plates containing 96 wells each. After 24 h, medium was removed from the plates and the compounds in (in 0.1% DMSO) were added (in 200 μL medium to yield a final concentration of 0.1% v/v) to the wells of plates. A single compound was designated with four wells followed by incubation of plates for 96h at 37°C. After incubation, medium was removed completely from the plates followed by addition of MTT (0.4 mg/mL in medium) to each well and subsequent incubation of plates for 3h. MTT (along with the medium) was removed and DMSO (150μL) was added to each well of the culture plates, followed by vortexing and subsequent measurement of absorbance (at 540 nm) using microplate reader. The data are shown as percentage inhibition of proliferation in comparison with controls

C. albicans = assay: Antifungal assay (MIC/MFC), twofold serial dilution
P. aeruginosa = assay: MIC/MBC assay, twofold serial dilution; format: cell-based, Pseudomonas aeruginosa
Protocol: as §1, §2, §3, §4, §5

S. aureus biofilm = assay: Antibiofilm assay, microtiter plate biofilm quantification
Protocol: Microtiter plate assay for biofilm quantification
The effect of sample on biofilm formation was evaluated in 96-well polystyrene
flatbottom plates. Briefly, 300 𝜇L of inoculated fresh trypticase soy yeast broth (TSY)
Wells containing medium and those without
extracts and only with methanol were used as controls. Plates were incubated at 37∘C
for 48h. After incubation, supernatant was removed and each well was washed
thoroughly with sterile distilled water to remove free-floating cells; thereafter plates
were air-dried for 30min, and the biofilm formed was stained during 15 min at room
temperature with 0.1% aqueous solution of crystal violet. Following incubation, the
excess of stain was removed by washing the plate three times with sterile distilled water.
each well and after 15min of incubation, absorbance was measured using microplate
reader at a wavelength of 570 nm.
Biofilm inhibition ability of sample=(1- (absorb. sample - absorb. Blank))/
(absorb. control - absorb. Blank))*100

[3] = system: S. aureus (ATCC 43300) (MRSA); assay: Antibacterial assay against multi-drug resistant strains (MIC/MBC); format: cell-based, Staphylococcus aureus; conditions: for MBC / MIC: S. aureus ATCC 43300 (MRSA)
A. flavus = assay: Antifungal assay (MIC/MFC), twofold serial dilution; conditions: for MIC: A. flavus
E. coli (ATCC BAA-196) = assay: Antibacterial assay against multi-drug resistant strains (MIC/MBC); format: cell-based, Escherichia coli; conditions: for MBC: ATCCBAA196
[4] = Staphylococcus aureus, read-out: MBC
[5] = Staphylococcus aureus, read-out: MIC
[6] = Escherichia coli, read-out: MIC
[7] = Pseudomonas aeruginosa, ATCCBAA2111, read-out: MIC
[8] = Bacillus subtilis, read-out: MBC
[9] = Bacillus subtilis, read-out: MIC
[10] = Pseudomonas aeruginosa, read-out: MBC
[11] = Pseudomonas aeruginosa, read-out: MIC
[12] = Escherichia coli, ATCCBAA196, read-out: MIC

Chain of DHFR E. Coli (P0ABQ4 whole entry): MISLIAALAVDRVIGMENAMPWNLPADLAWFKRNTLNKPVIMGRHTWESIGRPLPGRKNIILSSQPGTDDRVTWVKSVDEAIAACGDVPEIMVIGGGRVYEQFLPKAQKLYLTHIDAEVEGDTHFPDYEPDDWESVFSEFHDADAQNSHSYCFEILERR

O=C1Nc2ccc(Cl)cc2/C1=N/NC(=O)c1cc(Cc2ccc(O)c(C(=O)N/N=C3\C(=O)Nc4ccc(Cl)cc43)c2)ccc1O [Compound 6h]
Potency relative to novobiocin against DNA gyrase (E. coli DNA gyrase): twice as potent as novobiocin | IC50 (E. coli DNA gyrase; read-out: IC50 E. Coli DNA gyrase): 0.079 ± 0.005 µM | MBC (S. aureus): 0.028 ± 0.001 µM (≈ 0.018 µg/mL) | MIC (S. aureus): 0.019 ± 0.001 µM (≈ 0.0122 µg/mL) | Times more effective than ciprofloxacin (MIC) (S. aureus): 1.5 times | MBC (S. aureus; [4]): 0.028 µM (≈ 0.018 µg/mL) | MIC (S. aureus; [5]): 0.019 µM (≈ 0.0122 µg/mL) | MIC (E. coli): 0.054 ± 0.003 µM (≈ 0.0347 µg/mL) | MBC (E. coli; Escherichia coli): 0.074 ± 0.006 µM (≈ 0.0476 µg/mL) | MIC (E. coli; [6]): 0.054 µM (≈ 0.0347 µg/mL) | MIC [1]: 3.40 ± 0.20 µM (≈ 2.19 µg/mL) | MBC ([1]; Pseudomonas aeruginosa): 5.8 ± 0.3 µM (≈ 3.73 µg/mL) | MIC [1, 7]: 3.4 µM (≈ 2.19 µg/mL) | IC50 (DHFR E. Coli): 3.8 ± 0.1 µM | MBC (B. subtilis): 0.038 ± 0.002 µM (≈ 0.0245 µg/mL) | MIC (B. subtilis): 0.024 ± 0.002 µM (≈ 0.0154 µg/mL) | Times less effective than ciprofloxacin (MIC) (B. subtilis): 2.5 times | MBC (B. subtilis; [8]): 0.038 µM (≈ 0.0245 µg/mL) | MIC (B. subtilis; [9]): 0.024 µM (≈ 0.0154 µg/mL) | MBC (Gram-positive bacteria): 0.028 to 0.058 µM (≈ 0.018 to 0.0373 µg/mL) | viability at 96 h, 50 µM [2]: 93% | MIC (C. albicans; C. albicans): 18.20 ± 1 µM (≈ 11.7 µg/mL) | MFC (C. albicans; Candida albicans): 36.5 ± 2 µM (≈ 23.5 µg/mL) | MIC (C. albicans; Candida albicans): 18.2 µM (≈ 11.7 µg/mL) | MBC (P. aeruginosa): 0.074 ± 0.005 µM (≈ 0.0476 µg/mL) | MIC (P. aeruginosa): 0.055 ± 0.004 µM (≈ 0.0354 µg/mL) | MBC (P. aeruginosa; [10]): 0.074 µM (≈ 0.0476 µg/mL) | MIC (P. aeruginosa; [11]): 0.055 µM (≈ 0.0354 µg/mL) | Biofilm inhibition % (S. aureus biofilm; 1/2 MIC of 6h (S. aureus ATCC 43300)): 87.66% | Biofilm inhibition % (S. aureus biofilm; 1/2 MIC of 6h (S. aureus ATCC 43300), listed as 6 h): 88% | Biofilm inhibition % (S. aureus biofilm; 1/4 of MIC of 6h (S. aureus ATCC 43300)): 64.10% | Biofilm inhibition % (S. aureus biofilm; 1/4 of MIC of 6h (S. aureus ATCC 43300), listed as 6 h): 64% | Biofilm inhibition % (S. aureus biofilm; MIC of 6h (S. aureus ATCC 43300)): 96.95% | Biofilm inhibition % (S. aureus biofilm; MIC of 6h (S. aureus ATCC 43300), listed as 6 h): 97% | Times more potent than norfloxacin (MBC) ([3]; MRSA strain S. aureus ATCC 43300): around 1.2 times | MBC [3]: 3.20 ± 0.15 µM (≈ 2.06 µg/mL) | MIC [3]: 1.70 ± 0.10 µM (≈ 1.09 µg/mL) | MBC [3, 4]: 3.9 µM (≈ 2.51 µg/mL) | MIC [3, 5]: 1.7 µM (≈ 1.09 µg/mL) | MIC (A. flavus): 14.50 µM (≈ 9.33 µg/mL) | MIC (A. flavus; listed as 6 h): 14.50 ± 1 µM (≈ 9.33 µg/mL) | MFC (A. flavus; Aspergillus flavus): 28.5 ± 1 µM (≈ 18.3 µg/mL) | MIC (A. flavus; Aspergillus flavus): 14.5 to 19.5 µM (≈ 9.33 to 12.5 µg/mL) | MIC (E. coli (ATCC BAA-196)): 1.90 ± 0.10 µM (≈ 1.22 µg/mL) | MBC (E. coli (ATCC BAA-196); Escherichia coli): 3.7 ± 0.2 µM (≈ 2.38 µg/mL) | MIC (E. coli (ATCC BAA-196); [12]): 1.9 µM (≈ 1.22 µg/mL)

COc1ccc2c(c1)/C(=N/NC(=O)c1cc(Cc3cc(Cl)c(O)c(C(=O)N/N=C4\C(=O)Nc5ccc(OC)cc54)c3)cc(Cl)c1O)C(=O)N2 [Compound 6e]
MBC (S. aureus; [4]): 0.054 ± 0.003 µM (≈ 0.038 µg/mL) | MIC (S. aureus; [5]): 0.035 ± 0.002 µM (≈ 0.0246 µg/mL) | MBC (E. coli; Escherichia coli): 0.095 ± 0.006 µM (≈ 0.0668 µg/mL) | MIC (E. coli; [6]): 0.069 ± 0.004 µM (≈ 0.0485 µg/mL) | MBC ([1]; Pseudomonas aeruginosa): 10.4 ± 0.7 µM (≈ 7.32 µg/mL) | MIC [1, 7]: 7.15 ± 0.5 µM (≈ 5.03 µg/mL) | MBC (B. subtilis; [8]): 0.058 ± 0.003 µM (≈ 0.0408 µg/mL) | MIC (B. subtilis; [9]): 0.037 ± 0.002 µM (≈ 0.026 µg/mL) | MBC (Gram-positive bacteria): 0.028 to 0.058 µM (≈ 0.0197 to 0.0408 µg/mL) | viability at 96 h, 50 µM [2]: 92% | MFC (C. albicans; Candida albicans): 50.2 ± 3 µM (≈ 35.3 µg/mL) | MIC (C. albicans; Candida albicans): 22.9 ± 1 µM (≈ 16.1 µg/mL) | MBC (P. aeruginosa; [10]): 0.097 ± 0.006 µM (≈ 0.0682 µg/mL) | MIC (P. aeruginosa; [11]): 0.069 ± 0.005 µM (≈ 0.0485 µg/mL) | MBC [3, 4]: 7.8 ± 0.5 µM (≈ 5.49 µg/mL) | MIC [3, 5]: 5.9 ± 0.2 µM (≈ 4.15 µg/mL) | MIC (A. flavus): 19.50 ± 1 µM (≈ 13.7 µg/mL) | MFC (A. flavus; Aspergillus flavus): 40.2 ± 3 µM (≈ 28.3 µg/mL) | MIC (A. flavus; Aspergillus flavus): 14.5 to 19.5 µM (≈ 10.2 to 13.7 µg/mL) | MBC (E. coli (ATCC BAA-196); Escherichia coli): 9.3 ± 0.6 µM (≈ 6.54 µg/mL) | MIC (E. coli (ATCC BAA-196); [12]): 6.25 ± 0.25 µM (≈ 4.4 µg/mL)
